Reference: patent US9101638B2, “Boronic acid derivatives and therapeutic uses thereof” (Rempex Pharmaceuticals, Inc., priority 2013, dated 2015)
Counter-ions that a name gives are not always drawn.

How the values were obtained:
KP1005 (CTX-M-14) = test: Potentiation of aztreonam, strain KP1005; type: cell-based
CathepsinG = target: T1, CathepsinG (Homo sapiens, UniProt P08311); test: Serine protease inhibition: cathepsin G; type: biochemical, mammalian; conditions: Table 8B
T1 construct: purchased EMD Millipore 219373
T1 sequence (P08311 21-244): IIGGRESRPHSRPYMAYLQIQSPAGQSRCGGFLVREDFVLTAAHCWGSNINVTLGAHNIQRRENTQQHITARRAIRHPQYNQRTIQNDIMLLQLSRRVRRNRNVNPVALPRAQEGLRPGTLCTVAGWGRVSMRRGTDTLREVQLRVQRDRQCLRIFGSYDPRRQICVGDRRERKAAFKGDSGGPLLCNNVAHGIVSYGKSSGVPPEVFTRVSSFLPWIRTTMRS
Method: (§1) The effect of selected BLIs on the enzymatic activity of some common mammalian serine proteases was evaluated.
(§2) 50 μl of the diluted enzyme was mixed with 50 μl of inhibitor at various concentrations and 50 μl of corresponding buffer (Table 7). Reaction mixtures were incubated for 10 min at 37° C. Subsequently, 50 μl of corresponding substrate (Table 7) was added and absorbance or fluorescence was monitored for 30 min on SpectraMax M2 plate reader (Molecular Devices). 4-(2-Aminoethyl)benzenesulfonyl fluoride hydrochloride (AEBSF) and leupeptin were used as positive controls. Rates of reaction were calculated and presented relative to “no treatment” control.

CTX-M-14 = CTX-M-14 (Escherichia coli, UniProt Q9L5C7); test: Inhibition of nitrocefin cleavage by purified CTX-M-14; type: biochemical; conditions: nitrocefin reporter substrate, purified enzyme; read-out: Ki (CTX-M-14, NCF)
Chain of CTX-M-14 (Q9L5C7 entry or part of it): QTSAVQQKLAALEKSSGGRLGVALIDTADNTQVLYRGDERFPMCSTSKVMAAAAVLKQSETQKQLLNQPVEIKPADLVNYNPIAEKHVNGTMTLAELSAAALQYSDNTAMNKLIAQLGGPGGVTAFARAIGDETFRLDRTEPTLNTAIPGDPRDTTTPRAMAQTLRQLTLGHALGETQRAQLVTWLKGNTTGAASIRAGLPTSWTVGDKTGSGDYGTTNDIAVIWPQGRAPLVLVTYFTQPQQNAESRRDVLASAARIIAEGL
Method: (§3) Purified enzymes were mixed with various concentrations of inhibitors in reaction buffer and incubated for 10 min at room temperature. Nitrocefin was added and substrate cleavage profiles were recorded at 490 nm every 10 sec for 10 min.

SHV-12 = SHV-12 (Klebsiella pneumoniae, UniProt P0AD64, E235K/G234S/L31Q); test: Inhibition of nitrocefin cleavage by purified SHV-12; type: biochemical; conditions: nitrocefin reporter substrate, purified enzyme; read-out: Ki (SHV-12, NCF)
Chain of SHV-12 (P0AD64 22-286 L31Q/G234S/E235K): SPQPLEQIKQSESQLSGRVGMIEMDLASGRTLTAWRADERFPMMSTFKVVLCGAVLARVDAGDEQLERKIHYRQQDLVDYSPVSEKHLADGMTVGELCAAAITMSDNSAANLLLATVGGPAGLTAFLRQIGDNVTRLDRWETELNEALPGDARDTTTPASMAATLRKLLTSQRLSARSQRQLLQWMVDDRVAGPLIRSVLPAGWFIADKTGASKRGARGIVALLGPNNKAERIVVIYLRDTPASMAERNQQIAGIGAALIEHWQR
Method: as §3

OXA-48 = OXA-48 (Klebsiella pneumoniae, UniProt Q6XEC0); test: Inhibition of nitrocefin cleavage by purified OXA-48; type: biochemical; conditions: nitrocefin reporter substrate, purified enzyme; read-out: Ki (OXA-48, NCF)
Chain of OXA-48 (Q6XEC0 23-265 limits assumed): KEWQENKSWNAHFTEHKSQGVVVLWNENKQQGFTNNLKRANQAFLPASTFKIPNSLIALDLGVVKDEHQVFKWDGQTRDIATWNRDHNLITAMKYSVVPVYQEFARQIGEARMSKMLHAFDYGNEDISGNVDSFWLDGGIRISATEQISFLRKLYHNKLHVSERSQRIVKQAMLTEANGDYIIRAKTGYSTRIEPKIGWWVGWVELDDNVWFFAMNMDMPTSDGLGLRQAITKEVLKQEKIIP
Method: as §3

PAM1154/KPC-2 = test: Biapenem potentiation in PAM1154/KPC-2 (MexAB-OprM lacking); type: cell-based, Pseudomonas aeruginosa
Method: (§4) Efflux of BLIs from Pseudomonas aeruginosa by the MexAB-OprM efflux pump was also evaluated. […] Due to expression of KPC-2 both strains became resistant to biapenem. […] Potency of BLIs to potentiate biapenem in these strains was determined. […] The ratio of MPC64 values for each BLI in PAM1032/KPC-2 (efflux proficient) and PAM1154/KPC-2 (efflux deficient) was determined to generate the Efflux Index (EI).

ec302 (TEM-10) [1] = test: Potentiation of tigemonam, strain ec302; type: cell-based
ECL1002 = test: Potentiation of aztreonam, strain ECL1002; type: cell-based; conditions: minimum BLI concentration inhibiting growth with 4 μg/mL aztreonam
PAM1032/KPC-2 = test: Biapenem potentiation in PAM1032/KPC-2 (MexAB-OprM overexpressed); type: cell-based, Pseudomonas aeruginosa; conditions: BLI potency to decrease biapenem MIC 64-fold, 32 to 0.5 μg/ml; efflux proficient strain
Method: as §4

CathepsinA = target: T2, CathepsinA (Homo sapiens, UniProt P10619); test: Serine protease inhibition: cathepsin A; type: biochemical, mammalian; conditions: Table 8B; read-out: IC50 CathepsinA
T2 construct: purchased R&D Systems 1049-SE
T2 sequence (P10619 29-480): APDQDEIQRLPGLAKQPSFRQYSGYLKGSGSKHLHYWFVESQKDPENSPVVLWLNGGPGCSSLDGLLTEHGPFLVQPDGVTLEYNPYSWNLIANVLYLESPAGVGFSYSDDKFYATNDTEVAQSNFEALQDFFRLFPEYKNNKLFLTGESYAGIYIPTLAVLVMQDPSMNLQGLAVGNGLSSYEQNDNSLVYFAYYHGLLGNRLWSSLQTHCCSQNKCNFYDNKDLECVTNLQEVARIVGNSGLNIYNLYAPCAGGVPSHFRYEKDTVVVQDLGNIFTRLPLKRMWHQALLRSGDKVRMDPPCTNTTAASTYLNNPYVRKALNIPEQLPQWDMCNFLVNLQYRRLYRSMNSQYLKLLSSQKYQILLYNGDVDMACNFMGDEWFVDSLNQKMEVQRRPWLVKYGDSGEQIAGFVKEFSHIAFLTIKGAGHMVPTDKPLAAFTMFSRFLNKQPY
Method: as §1, §2

KP1009 (CTX-M-15) [2] = test: Potentiation of aztreonam, strain KP1009; type: cell-based
ec308 (SHV-5) [3] = test: Potentiation of aztreonam, strain ec308; type: cell-based; conditions: minimum BLI concentration inhibiting growth with 4 μg/mL aztreonam
ec302 (TEM-10) [4] = test: Potentiation of aztreonam, strain ec302; type: cell-based
ec308 (SHV-5) [5] = test: Potentiation of tigemonam, strain ec308; type: cell-based; conditions: minimum BLI concentration inhibiting growth with 4 μg/mL tigemonam
EC1010 (CMY-6) [6] = test: Potentiation of aztreonam, strain EC1010; type: cell-based
KP1004 (K-2) = test: Potentiation of aztreonam, strain KP1004; type: cell-based; conditions: minimum BLI concentration inhibiting growth with 4 μg/mL aztreonam
KP1009 (CTX-M-15) [7] = test: Potentiation of tigemonam, strain KP1009; conditions: minimum BLI concentration inhibiting growth with 4 μg/mL tigemonam
EC1010 (CMY-6) [8] = type: cell-based
KPC-2 = KPC-2 (Klebsiella pneumoniae, UniProt Q9F663); test: Inhibition of nitrocefin cleavage by purified KPC-2; type: biochemical; conditions: nitrocefin reporter substrate, purified enzyme; read-out: Ki (KPC-2, NCF)
Chain of KPC-2 (Q9F663 25-293, looked up, species assumed): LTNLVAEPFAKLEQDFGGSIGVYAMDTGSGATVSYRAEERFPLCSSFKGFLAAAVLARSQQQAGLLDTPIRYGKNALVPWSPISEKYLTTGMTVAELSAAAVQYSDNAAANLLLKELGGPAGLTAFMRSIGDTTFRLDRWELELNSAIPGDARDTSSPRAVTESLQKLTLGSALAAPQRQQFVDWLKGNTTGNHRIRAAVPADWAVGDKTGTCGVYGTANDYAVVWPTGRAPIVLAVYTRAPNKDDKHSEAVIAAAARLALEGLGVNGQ
Method: as §3

Thrombin = target: T3, Thrombin (Homo sapiens, UniProt P00734); test: Serine protease inhibition: thrombin; type: biochemical, mammalian
T3 construct: Thrombin; MPBio; 19491880; purchased MPBio 19491880
Method: as §1, §2

Chymase = target: T4, Chymase (Homo sapiens, UniProt P23946); test: Serine protease inhibition: chymase; type: biochemical, mammalian
T4 construct: purchased Enzo Lifescience BML-SE281
T4 sequence (P23946 22-247): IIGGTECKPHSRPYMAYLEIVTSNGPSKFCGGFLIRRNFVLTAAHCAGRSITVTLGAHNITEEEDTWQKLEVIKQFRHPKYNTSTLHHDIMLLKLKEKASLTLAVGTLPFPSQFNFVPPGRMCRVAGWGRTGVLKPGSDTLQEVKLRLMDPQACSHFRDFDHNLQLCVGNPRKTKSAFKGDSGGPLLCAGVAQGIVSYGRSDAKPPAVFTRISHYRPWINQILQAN
Method: as §1, §2

Urokinase = target: T5, Urokinase (Homo sapiens, UniProt P00749); test: Serine protease inhibition: urokinase; type: biochemical, mammalian
T5 construct: purchased Calbiochem 672112
Method: as §1, §2

Neutrophil elastase = target: T6, Neutrophil elastase (Homo sapiens, UniProt P08246); test: Serine protease inhibition: neutrophil elastase; type: biochemical, mammalian
T6 construct: purchased Calbiochem 324681
T6 sequence (P08246 30-267): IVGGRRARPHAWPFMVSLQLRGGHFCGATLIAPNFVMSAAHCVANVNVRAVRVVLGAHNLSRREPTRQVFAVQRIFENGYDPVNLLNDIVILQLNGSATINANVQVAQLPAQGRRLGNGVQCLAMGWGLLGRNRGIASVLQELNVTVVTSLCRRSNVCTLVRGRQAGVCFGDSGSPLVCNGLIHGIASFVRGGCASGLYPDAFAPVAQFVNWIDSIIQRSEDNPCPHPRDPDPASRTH
Method: as §1, §2

O=C(N[C@H]1Cc2cccc(C(=O)O)c2OB1O)c1cncs1 [Compound 15, (R)-2-hydroxy-3-(thiazole-5-carboxamido)-3,4-dihydro-2H-benzo[e][1,2]oxaborinine-8-carboxylic acid]
AZT MPC4 CTX-M-14 KP1005 (KP1005 (CTX-M-14)): Y (key: X = MIC of less than 1 μg/mL; Y = MIC of 1 μg/mL to 10 μg/mL; Z = MIC of greater than 10 μg/mL) | IC50 (CathepsinG): 15 to 500 µM | Ki (CTX-M-14): < 0.001 µM | Ki (SHV-12): < 0.001 µM | Ki (OXA-48): < 0.001 µM | PAM1154/KPC-2 Biapenem MPC64 (PAM1154/KPC-2): X (key: X = Less than 10; Y = 10 to 40; Z Greater than 40) | TIG MPC4 TEM-10 ec302 (ec302 (TEM-10) [1]): Y (key: X = MIC of less than 1 μg/mL; Y = MIC of 1 μg/mL to 10 μg/mL; Z = MIC of greater than 10 μg/mL) | AZT MPC4 ECL1002 (ECL1002): Y (Y = MIC of 1 μg/mL to 10 μg/mL) | PAM1032/KPC-2 Biapenem MPC64 (PAM1032/KPC-2): Z (Z Greater than 40) | IC50 (CathepsinA): 15 to 500 µM | AZT MPC4 CTX-M-15 KP1009 (KP1009 (CTX-M-15) [2]): Y (key: X = MIC of less than 1 μg/mL; Y = MIC of 1 μg/mL to 10 μg/mL; Z = MIC of greater than 10 μg/mL) | AZT MPC4 SHV-5 ec308 (ec308 (SHV-5) [3]): X (X = MIC of less than 1 μg/mL) | AZT MPC4 TEM-10 ec302 (ec302 (TEM-10) [4]): X (key: X = MIC of less than 1 μg/mL; Y = MIC of 1 μg/mL to 10 μg/mL; Z = MIC of greater than 10 μg/mL) | TIG MPC4 SHV-5 ec308 (ec308 (SHV-5) [5]): Y (Y = MIC of 1 μg/mL to 10 μg/mL) | AZT MPC4 CMY-6 EC1010 (EC1010 (CMY-6) [6]): Y (key: X = MIC of less than 1 μg/mL; Y = MIC of 1 μg/mL to 10 μg/mL; Z = MIC of greater than 10 μg/mL) | AZT MPC4 K-2 KP1004 (KP1004 (K-2)): Y (Y = MIC of 1 μg/mL to 10 μg/mL) | TIG MPC4 CTX-M-15 KP1009 (KP1009 (CTX-M-15) [7]): Y (Y = MIC of 1 μg/mL to 10 μg/mL) | TIG MPC4 CMY-6 EC1010 (EC1010 (CMY-6) [8]): Y (key: X = MIC of less than 1 μg/mL; Y = MIC of 1 μg/mL to 10 μg/mL; Z = MIC of greater than 10 μg/mL) | Ki (KPC-2): > 0.01 µM

NCCc1ccc(S(=O)(=O)F)cc1 [AEBSF, 4-(2-Aminoethyl)benzenesulfonyl fluoride hydrochloride, reference compound]
IC50 (Thrombin): 100 µM | IC50 (Chymase): 375 µM | IC50 (Urokinase): 8.2 µM | IC50 (Neutrophil elastase): > 500 µM
